Patent US11186606B2, “Compositions and methods of modulating the immune response by activating alpha protein kinase 1” (Shanghai Yao Yuan Biotechnology Co., Ltd., priority 2017, dated 2021)

Test system: CT26 cells
Experiment: CT26 tumor xenograft model, tumor volume
Assay type: in vivo, BALB/c mice
Procedure: We used a CT26 tumor xenograft model to test the anti-cancer activity of H1b-ADP. Tumor cells (2×10^5 per 100 uL CT26 cells) were inoculated subcutaneously into the right flank of BALB/c mice. At day 6, mice whose tumors had reached 3-5 mm in diameter were randomized and grouped into three groups (n=8 each group), control, HMP-1bP (580 ug), and H1b-ADP (1.2 ug). Injections were performed using a total volume of 20 uL at days 6, 8, 10, 12, and 14 post inoculation. Tumor volumes were calculated every 2 days from caliper measurements of tumor dimension using the formula (L×W^2)/2, where L is the longer measurement.
To test whether H1b-ADP could augment an anti-tumor response by a checkpoint inhibitor, we tested the effects of co-administration with an anti-PD1 antibody. Tumor cells (2×10^5 per 100 μL CT26 cells) were inoculated subcutaneously into the left and right flanks of BALB/c mice. At day 7, mice whose tumors had reached 5 mm in diameter were randomized and grouped (n=8 each group) into the following four groups: anti-PD1 antibody; rat IgG; H1b-ADP+rat IgG; H1b-ADP+anti-PD1 antibody. We utilized RMP1-14 as the anti-PD1 antibody (10 mg/kg) and a rat IgG 2a (2A3) as the control IgG. Each of the anti-PD-1 antibody and the control IgG was administered intraperitoneally in a 200 μL volume on days 6, 10, 12, and 17 post-inoculation. H1b-ADP (6.2 μg) was intratumorally injected in a 20 μL volume at day 6, 8, 10, 12, and 15. Tumor volumes were calculated every 2 days from caliper measurements of tumor dimensions using the formula (L×W^2)/2, where L is the longer measurement. The results are shown in FIG. 13A for injected tumors and FIG. 13B for distant tumors. […]
The experiment was carried out as combo experiments of anti-PD1 except for the following variations. At day 6, mice whose tumors had reached 5 mm in diameter were randomized and grouped into the following four groups: c-di-AM(PS)2; PBS; H1b-ADP; H1b-ADP+c-di-AM(PS)2. We utilized c-di-AM(PS)2 as the STING agonist. Each of the c-di-AM(PS)2 (1 μg) and H1b-ADP (6.2 μg) was administered intratumorally in a 20 μL volume on days 6, 7, and 9 post-inoculation.
The experiment was carried out as combo experiments of anti-PD-1 except for the following variations. At day 6, mice whose tumors had reached 5 mm in diameter were randomized and grouped into the following four groups: anti-CD4 antibody (GK1.5 clone, BE0003-1, BioXcell); rat IgG; H1b-ADP+rat IgG; H1b-ADP+anti-CD4 antibody. Each of the anti-CD4 antibody (200 μg) and the control IgG (200 μg) was administered intraperitoneally in a 200 μL volume on days 3, 4, 8 post-inoculation. H1b-ADP (6.2 μg) was administered intratumorally in a 20 μL volume on days 6, 8, 10, 12, 14 post-inoculation.
The experiment was carried out as combo experiments of anti-PD-1 except for the following variations. At day 6, mice whose tumors had reached 5 mm in diameter were randomized and grouped into the following four groups: Resquimod; PBS; H1b-ADP; H1b-ADP+Resquimod. Resquimod (10 μg) and H1b-ADP (6.2 μg) were administered intratumorally in a 20 μL volume on days 6, 8, 11 post-inoculation.
We used a CT26 tumor xenograft model to test the anti-cancer activity of H1b-ADP derivative Compounds 1 and 2. Tumor cells (2×10^5 per 100 uL CT26 cells) were inoculated subcutaneously into the right flank of BALB/c mice. At day 7, mice whose tumors had reached 3-5 mm in diameter were randomized and grouped into three groups (n=9 each group), control, Compound 1 (50 nmol), and Compound 2 (50 nmol). Injections were performed using a total volume of 20 uL at days 7, 9, and 11 post inoculation. Tumor volumes were calculated every 2 days from caliper measurements of tumor dimension using the formula (L×W^2)/2, where L is the longer measurement.

For `Nc1ncnc2c1ncn2[C@@H]1O[C@H](COP(=O)(O)OP(=O)(O)O[C@@H]2O[C@H]([C@H](O)CO)[C@@H](O)[C@H](O)[C@@H]2O)[C@@H](O)[C@H]1O` [Compound H1b-ADP, D-glycero-D-manno-heptose-1β-ADP], the tumor growth (Example 7: H1b-ADP 6.2 μg intratumoral, RMP1-14 10 mg/kg intraperitoneal) was “markedly suppressed tumor growth” and the tumor growth (intratumoral, days 6, 8, 10, 12, 14, HMP-1bP 580 ug, H1b-ADP 1.2 ug) was “reduced tumor growth”.
